Experimental data as given in ChEMBL document CHEMBL1138481, “Compounds binding to the S2-S3 pockets of thrombin” (J Med Chem, 2009).

Key:
[1] = Inhibition of human alpha thrombin by chromogenic substrate enzyme assay
[2] = Inhibition of human alpha thrombin by surface plasmon resonance assay

Row | SMILES | IC50 [1] [µM] | Kd [2] [µM]
1 | O=C(NCc1cccs1)[C@@H]1CCCN1C(=O)CC1CCCCC1 | > 400 | 1000
2 | CCCNC(=O)[C@@H]1CCCN1C(=O)[C@H](N)C(c1ccccc1)c1ccccc1 | 18 | –
3 | COCCNC(=O)[C@@H]1CCCN1C(=O)[C@H](N)Cc1ccc(Cl)cc1 | > 400 | 140
4 | CNC(=O)[C@@H]1CCCN1C(=O)[C@H](N)Cc1ccc(Cl)cc1 | > 400 | 550
5 | O=C(NCc1cccs1)[C@@H]1CCCN1C(=O)CC1(O)c2ccccc2-c2ccccc21 | 49 | 23
6 | CNC(=O)[C@@H]1CCCN1C(=O)CC(c1ccccc1)c1ccccc1 | > 400 | > 1000
7 | CNC(=O)[C@@H]1CCCN1C(=O)CC1(O)c2ccccc2-c2ccccc21 | > 400 | > 1000
8 | O=C(NCc1cccs1)[C@@H]1CCCN1C(=O)Cc1ccc2c(c1)OCO2 | > 400 | 250
9 | N[C@H](Cc1ccc(Cl)cc1)C(=O)N1CCC[C@H]1C(=O)NCc1cccs1 | 13 | 2.2
10 | N[C@@H](C(=O)N1CCC[C@H]1C(=O)NCc1cccs1)C1CCCCC1 | 4.2 | 1.1
11 | N[C@@H](C(=O)N1CCC[C@H]1C(=O)NCc1cccs1)C(c1ccccc1)c1ccccc1 | 1.6 | 0.27
12 | COCCNC(=O)[C@@H]1CCCN1C(=O)CC1(O)c2ccccc2-c2ccccc21 | > 400 | 750
13 | CCCNC(=O)[C@@H]1CCCN1C(=O)Cc1ccc2c(c1)OCO2 | > 400 | > 1000
14 | CCCNC(=O)[C@@H]1CCCN1C(=O)CC1(O)c2ccccc2-c2ccccc21 | 380 | 99
15 | COCCNC(=O)[C@@H]1CCCN1C(=O)[C@H](N)C(c1ccccc1)c1ccccc1 | 89 | 6.8
16 | CC(C)CNC(=O)[C@@H]1CCCN1C(=O)[C@H](N)C1CCCCC1 | 230 | 49
17 | CNC(=O)[C@@H]1CCCN1C(=O)CC1CCCCC1 | > 400 | > 1000
18 | CNC(=O)[C@@H]1CCCN1C(=O)[C@H](N)C1CCCCC1 | > 400 | 790

Row | SMILES | IC50 [1] [µM] | Kd [2] [µM]
19 | COCCNC(=O)[C@@H]1CCCN1C(=O)[C@H](N)C1CCCCC1 | > 400 | 110
20 | O=C(NCc1cccs1)[C@@H]1CCCN1C(=O)CC(c1ccccc1)c1ccccc1 | 120 | 34
21 | O=C(NCc1cccs1)[C@@H]1CCCN1C(=O)CCc1ccc(Cl)cc1 | > 400 | 700
22 | CNC(=O)[C@@H]1CCCN1C(=O)CCc1ccc(Cl)cc1 | > 400 | > 1000
23 | COCCNC(=O)[C@@H]1CCCN1C(=O)Cc1ccc2c(c1)OCO2 | > 400 | > 1000
24 | CNC(=O)[C@@H]1CCCN1C(=O)[C@H](NS(=O)(=O)Cc1ccccc1)C1CCCCC1 | 170 | 35
25 | COCCNC(=O)[C@@H]1CCCN1C(=O)CC(c1ccccc1)c1ccccc1 | > 400 | > 1000
26 | COCCNC(=O)[C@@H]1CCCN1C(=O)CCc1ccc(Cl)cc1 | > 400 | 620
27 | CNC(=O)[C@@H]1CCCN1C(=O)Cc1ccc2c(c1)OCO2 | > 400 | > 1000
28 | COCCNC(=O)[C@@H]1CCCN1C(=O)[C@H](O)C1CCCCC1 | > 400 | > 1000
29 | CCCNC(=O)[C@@H]1CCCN1C(=O)[C@H](N)Cc1ccc(Cl)cc1 | 210 | 45
30 | CCCNC(=O)[C@@H]1CCCN1C(=O)CC(c1ccccc1)c1ccccc1 | > 400 | 270
31 | CCCNC(=O)[C@@H]1CCCN1C(=O)[C@H](N)C1CCCCC1 | 120 | 27
32 | CCCNC(=O)[C@@H]1CCCN1C(=O)CCc1ccc(Cl)cc1 | > 400 | > 1000
33 | COCCNC(=O)[C@@H]1CCCN1C(=O)CC1CCCCC1 | > 400 | > 1000
34 | CCCNC(=O)[C@@H]1CCCN1C(=O)CC1CCCCC1 | > 400 | > 1000
35 | N[C@@H](C(=O)N1CCC[C@H]1C(=O)NCC1CCCCC1)C1CCCCC1 | 20 | 9
36 | CNC(=O)[C@@H]1CCCN1C(=O)[C@H](N)C(c1ccccc1)c1ccccc1 | 230 | 38
